From patent publication US20100311677A1, “Active Ingredient Combinations Having Insecticidal and Acaricidal Properties” (Bayer CropScience AG, priority 2007, published 2010) come the findings set out here.

The test system of test [1] is Phaedon cochleariae. Description: Phaedon cochleariae larvae test (Example E), sprayed cabbage leaves.
In test [2] the test system is Myzus persicae. Description: Myzus persicae test (Example C), sprayed cabbage leaves. The note with it: alone; for pest or weed control at 0.16 g/ha / pest or weed control at 0.8 g/ha / pest or weed control at 0.032 g/ha / pest or weed control at 4 g/ha: Myzus persicae, 144 h, read-out: Kill in % after 6d; for pest or weed control at 0.16 g/ha / pest or weed control at 0.8 g/ha / pest or weed control at 0.032 g/ha / pest or weed control at 4 g/ha / Kill in % after 6d: after 6 d. Format: in vivo.

The test system of test [3] is Tetranychus urticae. Description: Tetranychus urticae test (OP-resistant/spray treatment) (Example G), bean leaf disks. The note with it: for pest or weed control at 20 g/ha / pest or weed control at 4 g/ha / pest or weed control at 0.8 g/ha: Tetranychus urticae, foliar, 144 h, read-out: Kill in % after 6 d; for pest or weed control at 20 g/ha / pest or weed control at 4 g/ha / pest or weed control at 0.8 g/ha / Kill in % after 6d: active compound alone, after 6 d; for Kill in % after 2d: alone. The format is in vivo. The method, then: Tetranychus urticae Test (OP-Resistant/Spray Treatment)
After the desired period of time, the activity in % is determined.

[4] abbreviates: Phaedon cochleariae, in Brassica oleracea, 144 h, read-out: Kill in % after 6d.

Turning to `CNC(=O)c1cc(C#N)cc(C)c1NC(=O)c1cc(Br)nn1-c1ncccc1Cl` [Cyazypyr (57), Cyazypyr], the pest or weed control at 0.16 g/ha in test [1] (setting [4]) was found to be 0%. Further, the “Kill in % after 1d” value in test [2] (4 g/ha) is 5%.
`CC(c1ccc(C(F)(F)F)nc1)S(C)(=O)=NC#N` (stereo not drawn) [II-29-29]: the pest or weed control at 20 g/ha in test [3] (20 g/ha) is 0%.
On to `CNC(=O)c1cc(Cl)cc(C)c1NC(=O)c1cc(Br)nn1-c1ncccc1Cl` [Rynaxapyr (56), chlorantraniliprole], for which, in test [3] (4 g/ha), the pest or weed control at 4 g/ha was 0%. Moreover, in test [2] (0.16 g/ha), the pest or weed control at 0.16 g/ha was found to be 0%.
Take `C/C(=N\C#N)N(C)Cc1ccc(Cl)nc1` [acetamiprid (25), acetamiprid]: the pest or weed control at 0.8 g/ha in test [1] (setting [4]) and in test [3] (0.8 g/ha) was 0% throughout. The pest or weed control at 0.16 g/ha in test [2] (0.16 g/ha) was determined as 0%.
In the case of `CNC(=O)O/N=C/C(C)(C)SC` [aldicarb (108), aldicarb], the “Kill in % after 1d” value in test [2] (4 g/ha) turned out to be 30%.
Regarding `Cc1ccc(/N=C/N(C)/C=N/c2ccc(C)cc2C)c(C)c1` [amitraz (86), amitraz], in test [1] (setting [4]), the pest or weed control at 100 g/ha was 0%. Also, the “Kill in % after 2d” value in test [3] (4 g/ha) is on record as 0%. The pest or weed control at 0.8 g/ha in test [2] (0.8 g/ha) is 0%.
Take `CC1(C)C(C=C(Cl)Cl)C1C(=O)OC(C#N)c1ccc(F)c(Oc2ccccc2)c1` (stereo not drawn) [beta-cyfluthrin (3), betacyfluthrin]: the figures for the pest or weed control at 0.8 g/ha in test [1] (setting [4]) and in test [3] (0.8 g/ha) were 17% and 0%, respectively. In addition, in test [2] (0.16 g/ha), the pest or weed control at 0.16 g/ha is 0%.
As to `CCOCn1c(-c2ccc(Cl)cc2)c(C#N)c(Br)c1C(F)(F)F` [chlorfenapyr (92), chlorfenapyr], the pest or weed control at 4 g/ha in test [3] (4 g/ha) amounted to 70%. In addition, the pest or weed control at 0.8 g/ha in test [2] (0.8 g/ha) was 0%.
As to `CN/C(=N\[N+](=O)[O-])NCc1cnc(Cl)s1` [clothianidin (30), clothianidin], the pest or weed control at 0.8 g/ha in test [3] (0.8 g/ha) stood at 0%. Besides, the pest or weed control at 0.032 g/ha in test [2] amounted to 0%.
Regarding `CN(Cc1ccc(Cl)nc1)C1=CC(=O)OC1` [compound (100)], the pest or weed control at 0.16 g/ha in test [2] (0.16 g/ha) was determined as 0%.
Turning to `O=C1C=C(N(Cc2ccc(Cl)nc2)CC(F)F)CO1` [compound (101)], the pest or weed control at 20 g/ha in test [3] (20 g/ha) was determined as 0%. The pest or weed control at 0.8 g/ha in test [2] (0.8 g/ha) is 50%.
In the case of `Cc1cc(C)c(-n2cnc(C(F)(F)F)n2)cc1SOCC(F)(F)F` [compound (106)], the pest or weed control at 4 g/ha in test [2] (4 g/ha) stood at 0%.
With `Cc1nn(C)c(/C(OC(=O)C(C)(C)C)=C(\C#N)c2ccc(C(C)(C)C)cc2)c1C` [cyenopyrafen (71), (1E)-2-cyano-2-[4-(1,1-dimethylethyl)phenyl]-1-(1,3,4-trimethyl-1H-pyrazol-5-yl)ethenyl 2,2-dimethylpropanoate], the pest or weed control at 0.8 g/ha in test [2] (0.8 g/ha) amounted to 0%.
Turning to `COCCOC(=O)C(C#N)(C(=O)c1ccccc1C(F)(F)F)c1ccc(C(C)(C)C)cc1` (stereo not drawn) [cyflumetofen (72), 2-methoxyethyl alpha-cyano-alpha-[4-(1,1-dimethylethyl)phenyl]-beta-oxo-2-(trifluoromethyl)benzenepropanoate], the pest or weed control at 4 g/ha in test [3] (4 g/ha) stood at 80%; in test [2] (4 g/ha), 0%.
In the case of `Nc1nc(N)nc(NC2CC2)n1` [cyromazine (43), cyromazine], the pest or weed control at 100 g/ha in test [1] (setting [4]) was 0%. Further, the pest or weed control at 20 g/ha in test [3] (20 g/ha) stood at 0%. In addition, the pest or weed control at 0.8 g/ha in test [2] (0.8 g/ha) amounted to 0%.
As for `CC1(C)C(C=C(Br)Br)C1C(=O)OC(C#N)c1cccc(Oc2ccccc2)c1` (stereo not drawn) [deltamethrin (6), deltamethrin], the pest or weed control at 0.8 g/ha was determined as 50% in test [1] (setting [4]) and 0% in test [3] (0.8 g/ha). The “Kill in % after 1d” value in test [2] (0.16 g/ha) worked out at 40%.
Consider `CC(C)c1cc(Oc2ccccc2)cc(C(C)C)c1NC(=S)NC(C)(C)C` [diafenthiuron (76), diafenthiuron], for which the pest or weed control at 20 g/ha in test [1] (setting [4]) is 0%. Besides, the pest or weed control at 0.8 g/ha stood at 30% in test [3] (0.8 g/ha) and 0% in test [2] (0.8 g/ha).
For the compound `CN/C(=N/CC1CCOC1)N[N+](=O)[O-]` (stereo not drawn) [dinotefuran (29)], the “Kill in % after 6d” value in test [3] (4 g/ha) was determined as 0%.
Take `O=S1OCC2C(CO1)C1(Cl)C(Cl)=C(Cl)C2(Cl)C1(Cl)Cl` (stereo not drawn) [endosulfan (49), endosulfan]: the pest or weed control at 20 g/ha in test [1] (setting [4]) amounted to 33%. The “Kill in % after 2d” value in test [3] (100 g/ha) came out at 0%. In addition, the pest or weed control at 4 g/ha in test [2] (4 g/ha) was found to be 0%.
Turning to `CC[S+]([O-])c1c(C#N)nn(-c2c(Cl)cc(C(F)(F)F)cc2Cl)c1N` (stereo not drawn) [ethiprole (51)], the “Kill in % after 6d” value in test [3] (100 g/ha) came to 0%.
As to `Cc1nn(C)c(Oc2ccccc2)c1C=NOCc1ccc(C(=O)OC(C)(C)C)cc1` [fenpyroximate (65), fenpyroximate], the “Kill in % after 2d” value in test [3] (0.8 g/ha) is reported as 10%. Further, the pest or weed control at 0.8 g/ha in test [2] (0.8 g/ha) turned out to be 0%.
For the compound `N#Cc1nn(-c2c(Cl)cc(C(F)(F)F)cc2Cl)c(N)c1[S+]([O-])C(F)(F)F` (stereo not drawn) [fipronil (50), fipronil], the pest or weed control at 4 g/ha in test [2] (4 g/ha) was 0%.
For the compound `N#CCNC(=O)c1cnccc1C(F)(F)F` [flonicamid (89), flonicamid], the “Kill in % after 2d” value in test [3] (100 g/ha) is listed as 0%.
As for `O=C(NC(=O)c1c(F)cccc1F)Nc1ccc(Oc2ccc(C(F)(F)F)cc2Cl)cc1F` [flufenoxuron (38), flufenoxuron], the pest or weed control at 4 g/ha in test [1] (setting [4]) amounted to 0%. For the same compound, the pest or weed control at 20 g/ha in test [3] (20 g/ha) was 0%.
On to `O=[N+]([O-])/N=C1\NCCN1Cc1ccc(Cl)nc1` [imidacloprid (24), imidacloprid], for which the pest or weed control at 0.8 g/ha in test [3] (0.8 g/ha) was found to be 0%. In test [2], the pest or weed control at 0.032 g/ha is 0%.
Consider `CNC(=O)Oc1cc(C)c(SC)c(C)c1` [methiocarb (110), methiocarb], for which the pest or weed control at 4 g/ha in test [1] (setting [4]) came to 0%.
For the compound `COc1cccc(C(=O)NN(C(=O)c2cc(C)cc(C)c2)C(C)(C)C)c1C` [methoxyfenozide (44), methoxyfenozide], the pest or weed control at 20 g/ha in test [3] (20 g/ha) amounted to 0%. Moreover, in test [2] (0.8 g/ha), the pest or weed control at 0.8 g/ha turned out to be 0%.
For `O=C(NC(=O)c1c(F)cccc1F)Nc1ccc(OC(F)(F)C(F)OC(F)(F)F)c(Cl)c1` (stereo not drawn) [novaluron (37), novaluron], the pest or weed control at 4 g/ha in test [1] (setting [4]) came out at 83%.
Regarding `FC(F)(F)c1ccc(OCCCOc2c(Cl)cc(OCC=C(Cl)Cl)cc2Cl)nc1` [pyridalyl (99)], the “Kill in % after 6d” value in test [3] (20 g/ha) was found to be 0%.
In the case of `CCC(C)(C)C(=O)OC1=C(c2ccc(Cl)cc2Cl)C(=O)OC12CCCCC2` [spirodiclofen (96), spirodiclofen], the pest or weed control at 100 g/ha in test [1] (setting [4]) was 0%. In test [2] (0.8 g/ha), the pest or weed control at 0.8 g/ha came to 0%.
In the case of `Cc1cc(C)c(C2=C(OC(=O)CC(C)(C)C)C3(CCCC3)OC2=O)c(C)c1` [spiromesifen (97), spiromesifen], the pest or weed control at 0.8 g/ha in test [2] (0.8 g/ha) came to 0%.
For `CCc1nn(C)c(C(=O)NCc2ccc(C(C)(C)C)cc2)c1Cl` [tebufenpyrad (64), tebufenpyrad], the pest or weed control at 0.8 g/ha in test [2] (0.8 g/ha) is 0%.
On to `CN1COCN(Cc2cnc(Cl)s2)/C1=N/[N+](=O)[O-]` [thiamethoxam (26), thiamethoxam], for which, in test [2], the pest or weed control at 0.032 g/ha was determined as 0%.
For the compound abamectin [abamectin (60)], the “Kill in % after 1d” value in test [2] (20 g/ha) turned out to be 5%.
With carbosulfan [carbosulfan (109)], the “Kill in % after 1d” value in test [2] (4 g/ha) was found to be 0%.
Consider chlorpyrifos [chlorpyrifos (95)], for which the “Kill in % after 6d” value in test [3] (20 g/ha) and in test [2] (0.8 g/ha) was 0% in each case.
Regarding profenofos [profenofos (114)], in test [3] (20 g/ha), the “Kill in % after 6d” value came to 0%. Also, in test [2] (0.8 g/ha), the “Kill in % after 1d” value is on record as 0%.
In the case of pyridaben [pyridaben (66)], the “Kill in % after 2d” value in test [1] (20 g/ha, alone, after 2 d) worked out at 33%. Further, the “Kill in % after 6d” value in test [2] (0.8 g/ha) is recorded as 0%.
